Results as given in patent US6734205B2, “Substituted guanidine derivatives” (Sumitomo Pharmaceuticals Company Limited, priority 1999, dated 2004).
Structures can show the parent of a compound that is named as a salt.

In the case of `Cn1c(C(=O)NC(=N)N)cc2c(Cl)cc(OCC(=O)O)cc21` [Example 23, [[2-[[[Amino(imino)methyl]amino]carbonyl]-4-chloro-1-methyl-1H-indol-6-yl]oxy]acetic Acid], the melting point is reported as 257 to 260 °C (dec.). For `Cn1c(C(=O)NC(=N)N)cc2c(Cl)cc(CCS(=O)(=O)O)cc21` [Example 41, 2-[2-[[[Amino(imino)methyl]amino]carbonyl]-4-chloro-1-methyl-1H-indol-6-yl]ethanesulfonic Acid], the melting point was no less than 300 °C. In the case of `Cc1cc(OS(=O)(=O)O)cc2c1cc(C(=O)NC(=N)N)n2C` (as salt: sulfate) [Example 2, 2-[[[Amino(imino)methyl]amino]carbonyl]-1,4-dimethyl-1H-indol-6-yl Hydrogen Sulfate], the melting point is reported as 303 to 304 °C (dec.). With `Cn1c(C(=O)NC(=N)N)cc2c(C(F)(F)F)ccc(OCCCS(=O)(=O)O)c21` [Example 33, 3-[[2-[[[Amino(imino)methyl]amino]carbonyl]-1-methyl-4-(trifluoromethyl)-1H-indol-7-yl]oxy]-1-propanesulfonic Acid] the melting point was ≥ 272 °C (dec.). In the case of `N=C(N)NC(=O)c1cc2c(Cl)cccc2n1CCCS(=O)(=O)O` [Example 27, 3-[2-[[[amino(imino)methyl]-amino]carbonyl]-4-chloro-1H-indol-1-yl]-1-propanesulfonic Acid], the melting point is reported as 281 °C (dec.). For `Cn1c(C(=O)NC(=N)N)cc2c(Cl)cc(OCP(=O)(O)O)cc21` [Example 47, [[2-[[[Amino(imino)methyl]amino]carbonyl]-4-chloro-1-methyl-1H-indol-6-yl]oxy]methylphosphonic Acid], the melting point was 263 °C (dec.). With `Cn1c(C(=O)NC(=N)N)cc2c(C(F)(F)F)cc(OCP(=O)(O)O)cc21` [Example 45, [[2-[[[amino(imino)methyl]-amino]carbonyl]-1-methyl-4-(trifluoromethyl)-1H-indol-6-yl]oxy]-methylphosphonic Acid] the melting point was 292 °C (dec.). With `Cn1c(C(=O)NC(=N)N)cc2c(C(F)(F)F)cc(CS(=O)(=O)O)cc21` [Example 37, [2-[[[amino(imino)methyl]amino]-carbonyl]-1-methyl-4-(trifluoromethyl)-1H-indol-6-yl]-methanesulfonic Acid] the melting point was no less than 300 °C. Work on `CS(=O)(=O)O.Cn1c(C(=O)NC(=N)N)cc2ccc(O[C@@H]3O[C@H](C(=O)O)[C@@H](O)[C@H](O)[C@H]3O)cc21` [Example 8, [2-[[[amino(imino)methyl]amino]-carbonyl]-1-methyl-1H-indol-6-yl] β-D-glucopyranosideuronic Acid Methanesulfonate] yielded a melting point of 170 to 171 °C. In the case of `Cc1cc(CCS(=O)(=O)O)cc2c1cc(C(=O)NC(=N)N)n2C` [Example 42, 2-[2-[[[Amino(imino)methyl]amino]carbonyl]-1,4-dimethyl-1H-indol-6-yl]ethanesulfonic Acid], the melting point is reported as ≥ 300 °C (dec.). `Cn1c(C(=O)NC(=N)N)cc2c(C(F)(F)F)cc(CCS(=O)(=O)O)cc21` [Example 39, 2-[2-[[[amino(imino)methyl]-amino]carbonyl]-1-methyl-4-(trifluoromethyl)-1H-indol-6-yl]ethanesulfonic Acid] showed a melting point of no less than 300 °C. For `Cn1c(C(=O)NC(=N)N)cc2c(C(F)(F)F)ccc(CP(=O)(O)O)c21` [Example 16, [2-[[[Amino(imino)methyl]amino]carbonyl]-1-methyl-4-(trifluoromethyl)-1H-indol-7-yl]methylphosphonic Acid], the melting point was 249 to 265 °C (dec.). For `Cn1c(C(=O)NC(=N)N)cc2c(C(F)(F)F)ccc(OCCS(=O)(=O)O)c21` [Example 31, 2-[[2-[[[Amino(imino)methyl]amino]carbonyl]-1-methyl-4-(trifluoromethyl)-1H-indol-7-yl]oxy]-ethanesulfonic Acid], the melting point was 275 °C (dec.). With `Cc1cc(OCC(=O)O)cc2c1cc(C(=O)NC(=N)N)n2C` [Example 25, [[2-[[[Amino(imino)methyl]amino]carbonyl]-1,4-dimethyl-1H-indol-6-yl]oxy]acetic Acid] the melting point was 260 to 270 °C (dec.).
